Assay results reported in US12103937B2, “Substituted pyridines and pyridazines as TYK2 inhibitors” (Sudo Biosciences Limited, priority 2021, dated 2024).

What was measured:
[1] = tested on: HEK-Blue IL-2 reporter cells, IL-2-stimulated STAT5 SEAP reporter; experiment: HEK-Blue IL-2 reporter assay (SEAP) for determining selectivity; type: cell-based; conditions: 4 ng/mL human recombinant IL-2, SEAP readout, read-out: IL-2 (SEAP selectivity, IC50 class)
Method: (§1) HEK-Blue™ IL-2 and IFNγ reporter cells with a stably-integrated cytokine receptor and STAT5 or STAT1 express STAT-inducible secreted embryonic alkaline phosphatase (SEAP) reporter gene upon cytokine stimulation. These cells were plated in DMEM (Gibco) containing 10% heat-inactivated FBS (Gibco) and 100 U/mL PenStrep (Gibco) at 37° C. under 5% CO2 conditions for 20-22 hours. The cells were then pretreated with serially diluted test compounds for 60 min prior to stimulation with either 4 ng/mL human recombinant IL-2 (Miltenyl Biotech) or 50 ng/mL human recombinant IFNγ (InvivoGen) for 24 hours. SEAP induction was measured using the QUANTI-Blue™ Solution (InvivoGen) according to the manufacturer's instructions.

[2] = tested on: HEK-Blue IFNγ reporter cells, IFNγ-stimulated STAT1 SEAP reporter; experiment: HEK-Blue IFNγ reporter assay (SEAP) for determining selectivity; type: cell-based; conditions: Homo sapiens, 50 ng/mL human recombinant IFNγ, SEAP readout, read-out: IFN-γ (SEAP selectivity, IC50 class)
Method: as §1

Row | SMILES | IC50 [1] [µM] | IC50 [2] [µM]
1 | [2H]C([2H])([2H])NC(=O)c1nnc(NC(=O)C2CC2)cc1Nc1nccc2c1N(C)[C@H](C([2H])([2H])[2H])c1nn(C)nc1-2 [Compound 114, (R)-6-(cyclopropanecarboxamido)-4-((2,5-dimethyl-4-(methyl-d3)-4,5-dihydro-2H-[1,2,3]triazolo[4,5-c][1,7]naphthyridin-6-yl)amino)-N-(methyl-d3)pyridazine-3-carboxamide] | > 1 | –
2 | [2H]C([2H])([2H])NC(=O)c1nnc(NC(=O)C2CC2)cc1Nc1nccc2c1N(C)[C@@H](C)c1nc(C)nn1-2 [Compound 112, (S)-6-(cyclopropanecarboxamido)-N-(methyl-d3)-4-((2,4,5-trimethyl-4,5-dihydropyrido[3,4-e][1,2,4]triazolo[1,5-a]pyrazin-6-yl)amino)pyridazine-3-carboxamide] | > 1 | > 1
3 | [2H]C([2H])([2H])NC(=O)c1nnc(NC(=O)[C@H]2C[C@H]2F)cc1Nc1nccc2c1N(C)Cc1nn(C)nc1-2 [Compound 115, 4-((2,5-dimethyl-4,5-dihydro-2H-[1,2,3]triazolo[4,5-c][1,7]naphthyridin-6-yl)amino)-6-((1R,2R)-2-fluorocyclopropane-1-carboxamido)-N-(methyl-d3)pyridazine-3-carboxamide] | 0.3 to 1 | 0.03 to 0.3
